This passage reports IC50, Ki and Ke results from ChEMBL document CHEMBL1137840, “A novel cyclic enkephalin analogue with potent opioid antagonist activity” (Bioorg Med Chem Lett, 2004).

SMILES strings stand for the structures.

The target in test [1] is Kappa-type opioid receptor (Cavia porcellus, UniProt P41144). Description: Inhibitory concentration against Kappa opioid receptor of guinea pig ileum. It counts as tissue-based.
Test [2] is described as follows: Binding affinity towards Mu opioid receptor.
Test [3] can be described thus: Binding affinity towards Kappa opioid receptor.
Test [4] has as its target Kappa-type opioid receptor (Cavia porcellus) (UniProt P41144). Description: Binding potency towards Kappa opioid receptor of guinea pig ileum. The class given is tissue-based.
Test [5] deals with Mu-type opioid receptor (Cavia porcellus) (UniProt P97266). Description: Binding potency towards Mu opioid receptor of guinea pig ileum. The class given is tissue-based.
Sequence of Mu-type opioid receptor (Cavia porcellus) (P97266 whole entry): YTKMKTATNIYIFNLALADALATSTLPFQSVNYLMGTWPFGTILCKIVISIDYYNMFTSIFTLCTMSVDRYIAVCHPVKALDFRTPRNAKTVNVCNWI
Test [6] deals with Delta-type opioid receptor (Mus musculus) (UniProt P32300). The test can be described thus: Binding potency towards Delta opioid receptor of mouse vas deferens. It counts as tissue-based.
Sequence of Delta-type opioid receptor (Mus musculus) (P32300 whole entry): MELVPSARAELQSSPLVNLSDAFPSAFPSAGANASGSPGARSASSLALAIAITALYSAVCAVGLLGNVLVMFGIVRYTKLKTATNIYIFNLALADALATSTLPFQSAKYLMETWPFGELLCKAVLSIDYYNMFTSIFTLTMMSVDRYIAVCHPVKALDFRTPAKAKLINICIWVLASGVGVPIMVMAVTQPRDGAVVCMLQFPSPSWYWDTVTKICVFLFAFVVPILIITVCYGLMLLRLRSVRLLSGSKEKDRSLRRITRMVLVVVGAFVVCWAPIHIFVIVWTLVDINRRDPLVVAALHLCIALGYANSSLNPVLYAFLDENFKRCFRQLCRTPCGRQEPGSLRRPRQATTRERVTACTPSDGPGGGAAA
The nature of test [7]: Binding affinity towards Opioid receptor mu 1.

Sequence of Kappa-type opioid receptor (Cavia porcellus) (P41144 whole entry): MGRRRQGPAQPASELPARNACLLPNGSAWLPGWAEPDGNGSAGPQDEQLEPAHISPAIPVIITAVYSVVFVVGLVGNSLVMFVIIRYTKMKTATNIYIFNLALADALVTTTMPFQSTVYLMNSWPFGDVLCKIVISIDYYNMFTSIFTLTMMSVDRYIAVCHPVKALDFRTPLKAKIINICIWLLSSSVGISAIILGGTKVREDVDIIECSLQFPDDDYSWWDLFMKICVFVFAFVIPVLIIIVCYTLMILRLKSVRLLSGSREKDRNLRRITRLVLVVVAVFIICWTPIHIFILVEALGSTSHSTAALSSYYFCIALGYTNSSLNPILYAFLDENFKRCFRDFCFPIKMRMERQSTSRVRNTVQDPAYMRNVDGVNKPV
Sequence of Kappa-type opioid receptor (P41144 whole entry): as above

Regarding `Cc1cc(O)cc(C)c1C[C@H](N)C(=O)N[C@@H]1CSSC[C@H](C(N)=O)NC(=O)[C@H](Cc2ccc([N+](=O)[O-])cc2)NC(=O)CNC1=O`, in test [1], the IC50 – broadly, the concentration at which inhibition is half-maximal – was found to be 0.54 nM. Also, the figures for the inhibition constant Ki in test [2] and in test [3] were 0.24 nM and 3.77 nM, respectively.

Regarding `Cc1cc(O)cc(C)c1CCC(=O)N[C@H]1CSSC[C@H](C(N)=O)NC(=O)[C@H](Cc2ccc([N+](=O)[O-])cc2)NC(=O)CNC1=O`, the Ke was determined as 22.6 nM in test [4], 3.68 nM in test [5] and 63.3 nM in test [6]. The figures for the Ki in test [2] and in test [3] were 4.79 nM and 299 nM, respectively.

With `Cc1cc(O)cc(C)c1[C@H](C)CC(=O)N[C@H]1CSSC[C@H](C(N)=O)NC(=O)[C@H](Cc2ccc([N+](=O)[O-])cc2)NC(=O)CNC1=O`, the Ke in test [4] stood at 1630 nM; in test [5], 845 nM; in test [6] it was 3280 nM. The Ki (commonly the dissociation constant of the complex between target and ligand, obtained from inhibition or displacement) is 94.4 nM in test [2] and 6970 nM in test [3].

With `Cc1cc(O)cc(C)c1[C@@H](C)CC(=O)N[C@H]1CSSC[C@H](C(N)=O)NC(=O)[C@H](Cc2ccc([N+](=O)[O-])cc2)NC(=O)CNC1=O`, the values for the Ke in test [4], in test [5] and in test [6] were 5.81 nM, 1.4 nM and 55 nM, respectively. Moreover, the values for the Ki in test [7] and in test [3] were 2.1 nM and 49.5 nM, respectively.
